Assay results published in US20150246071A1, “TREATMENT COMPOSITIONS” (REOXCYN DISCOVERIES GROUP, INC., priority 2012, published 2015).

Tests used:
NRF2 = experiment: Western Blot validation of NRF2 nuclear accumulation in HMVEC-L; type: cell-based, human; conditions: ASEA 1% at 30, 60, 120 min, H2O2 30 min
Method: (§1) 8. A Western Blot analysis was done on extra-nuclear and intra-nuclear fractions, separated by differential centrifugation, of serum starved HMVEC-L cell cultures exposed to <1% of a composition of the invention compared with a positive hydrogen peroxide control to determine phosphorylation events (oxidant action) in the extra-nuclear fraction and NRF2 (antioxidant transcription) in the intra-nuclear fraction at 0, 30, 60, 90 and 120 min intervals.
(§2) Experimental Methods for Western Blot Validation of NRF2 Nuclear Accumulation: HMVEC-L were treated with 1% of a composition of the invention, nuclear extracts were separated through centrifugal differentiation from the extra-nuclear cytosol at 30, 60 and 120 min and subjected to Western Blot analysis for NRF2. In the Western blot experiment the extra-nuclear fraction was probed for phosphorylated proteins using a combination of anti-phospho serine, threonine and tyrosine antibodies. Virtually all cellular processes are regulated by posttranslational modifications and protein phosphorylation is a prevalent mechanism. […]

[1] = tested on: phosphorylated proteins (extra-nuclear fraction); experiment: Western Blot of protein phosphorylation in extra-nuclear fraction of HMVEC-L; type: cell-based, human; conditions: composition 1%, H2O2 positive control
Method: as §1, §2

## OO [H2O2, Hydrogen peroxide]
NRF2
  NRF2 levels in nuclear extracts (Western Blot): did not increase
[1]
  phosphorylation of extra-nuclear protein (Western Blot): marked increase
